Measurements as given in PMC4505863 (ACS Chemical Neuroscience, 2014).
Where two headings read alike, the source gives them in different places.

Assays:
5-HT2A = conditions: cited from earlier work
5-HT2A receptor [1] = target: T1, 5-HT2A receptor (Homo sapiens, UniProt P28223); conditions: authentic 4-bromo compound; cited from earlier work
5-HT1B = 5-HT1B (Homo sapiens, UniProt P28222); test: PDSP screening affinity 5-HT1B; format: binding
5-ht1e = 5-ht1e (Homo sapiens, UniProt P28566); test: PDSP screening affinity 5-ht1e; format: binding
5-ht1e, sequence (P28566 whole entry): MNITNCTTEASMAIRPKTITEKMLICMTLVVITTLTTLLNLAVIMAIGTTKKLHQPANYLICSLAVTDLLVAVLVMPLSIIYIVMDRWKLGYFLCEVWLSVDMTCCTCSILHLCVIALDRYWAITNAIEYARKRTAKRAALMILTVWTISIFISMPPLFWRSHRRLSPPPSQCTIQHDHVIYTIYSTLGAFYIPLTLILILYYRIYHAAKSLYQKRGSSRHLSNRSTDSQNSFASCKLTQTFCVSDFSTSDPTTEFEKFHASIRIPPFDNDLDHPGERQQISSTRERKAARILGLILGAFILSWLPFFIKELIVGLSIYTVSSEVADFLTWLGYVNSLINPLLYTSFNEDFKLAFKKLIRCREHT

r5-HT2A = r5-HT2A (Rattus norvegicus, UniProt P14842); test: Ca2+ mobilization assay; format: cell-based; conditions: for EC50: r5-HT2A EC50, Ca2+ mobilization
r5-HT2A, sequence (P14842 whole entry): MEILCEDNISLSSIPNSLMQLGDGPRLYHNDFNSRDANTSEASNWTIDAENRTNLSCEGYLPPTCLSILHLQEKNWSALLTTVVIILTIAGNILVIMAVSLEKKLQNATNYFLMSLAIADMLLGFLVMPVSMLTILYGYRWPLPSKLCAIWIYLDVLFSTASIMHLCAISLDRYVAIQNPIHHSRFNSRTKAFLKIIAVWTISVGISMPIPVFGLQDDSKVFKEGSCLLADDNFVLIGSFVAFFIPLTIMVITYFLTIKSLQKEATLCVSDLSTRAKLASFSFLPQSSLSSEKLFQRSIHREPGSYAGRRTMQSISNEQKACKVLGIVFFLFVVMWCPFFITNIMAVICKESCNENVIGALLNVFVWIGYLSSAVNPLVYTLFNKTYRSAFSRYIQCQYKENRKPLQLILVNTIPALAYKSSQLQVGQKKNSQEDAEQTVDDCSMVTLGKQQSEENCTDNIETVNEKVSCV

5-HT1D = 5-HT1D (Homo sapiens, UniProt P28221); test: PDSP screening affinity 5-HT1D; format: binding
5-HT1D, sequence (P28221 whole entry): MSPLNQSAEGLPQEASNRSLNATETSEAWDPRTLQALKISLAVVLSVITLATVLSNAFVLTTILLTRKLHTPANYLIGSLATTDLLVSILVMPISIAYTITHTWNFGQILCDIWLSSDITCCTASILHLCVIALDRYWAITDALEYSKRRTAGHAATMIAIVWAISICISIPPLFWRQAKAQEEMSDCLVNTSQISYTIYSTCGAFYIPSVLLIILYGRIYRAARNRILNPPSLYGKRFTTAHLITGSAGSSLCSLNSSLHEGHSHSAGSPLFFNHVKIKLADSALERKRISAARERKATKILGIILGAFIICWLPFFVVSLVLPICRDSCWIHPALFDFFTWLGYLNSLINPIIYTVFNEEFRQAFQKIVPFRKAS

Male C57BL/6J mice [2] = test: Mouse head twitch response; conditions: SC, doses up to 30 mg/kg
5-HT2B = 5-HT2B (Homo sapiens, UniProt P41595); test: PDSP screening affinity 5-HT2B; format: binding
5-HT2B, sequence (P41595 whole entry): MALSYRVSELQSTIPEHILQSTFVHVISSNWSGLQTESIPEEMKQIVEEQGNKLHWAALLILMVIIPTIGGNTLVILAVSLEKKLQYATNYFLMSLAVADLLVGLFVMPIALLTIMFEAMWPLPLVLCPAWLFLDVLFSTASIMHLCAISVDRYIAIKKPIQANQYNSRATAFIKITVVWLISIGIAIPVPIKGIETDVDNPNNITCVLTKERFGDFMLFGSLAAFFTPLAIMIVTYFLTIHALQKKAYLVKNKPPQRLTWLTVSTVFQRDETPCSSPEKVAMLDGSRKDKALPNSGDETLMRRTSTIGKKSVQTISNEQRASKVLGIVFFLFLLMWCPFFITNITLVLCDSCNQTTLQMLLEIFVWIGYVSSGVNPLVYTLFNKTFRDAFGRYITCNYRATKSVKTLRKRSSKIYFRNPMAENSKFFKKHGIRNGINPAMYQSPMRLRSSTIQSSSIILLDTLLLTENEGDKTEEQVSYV

5-HT2A receptor [3] = target: T1, 5-HT2A receptor; test: h5-HT2A affinity, agonist radioligand [125I]DOI; format: binding
human 5-HT2C receptor [4] = target: T2, human 5-HT2C receptor (Homo sapiens, UniProt P28335); test: h5-HT2C affinity, antagonist radioligand [3H]mesulergine; format: binding
T2 sequence (P28335 33-458): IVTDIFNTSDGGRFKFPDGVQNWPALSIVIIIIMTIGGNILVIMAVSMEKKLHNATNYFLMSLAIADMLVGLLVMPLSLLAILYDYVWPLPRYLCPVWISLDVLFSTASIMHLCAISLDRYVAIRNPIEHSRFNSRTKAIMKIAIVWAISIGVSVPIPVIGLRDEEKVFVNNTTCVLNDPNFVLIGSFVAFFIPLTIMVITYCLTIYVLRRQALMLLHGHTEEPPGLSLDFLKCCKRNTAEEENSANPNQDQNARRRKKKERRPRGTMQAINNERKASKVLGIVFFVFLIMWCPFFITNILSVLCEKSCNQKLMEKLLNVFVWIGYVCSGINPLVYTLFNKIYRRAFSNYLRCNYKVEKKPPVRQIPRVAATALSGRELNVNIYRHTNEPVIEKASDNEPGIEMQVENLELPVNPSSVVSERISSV

5-ht5a = 5-ht5a (Homo sapiens, UniProt P47898); test: PDSP screening affinity 5-ht5a; format: binding; conditions: 5-ht5a affinity
5-ht5a, sequence (P47898 whole entry): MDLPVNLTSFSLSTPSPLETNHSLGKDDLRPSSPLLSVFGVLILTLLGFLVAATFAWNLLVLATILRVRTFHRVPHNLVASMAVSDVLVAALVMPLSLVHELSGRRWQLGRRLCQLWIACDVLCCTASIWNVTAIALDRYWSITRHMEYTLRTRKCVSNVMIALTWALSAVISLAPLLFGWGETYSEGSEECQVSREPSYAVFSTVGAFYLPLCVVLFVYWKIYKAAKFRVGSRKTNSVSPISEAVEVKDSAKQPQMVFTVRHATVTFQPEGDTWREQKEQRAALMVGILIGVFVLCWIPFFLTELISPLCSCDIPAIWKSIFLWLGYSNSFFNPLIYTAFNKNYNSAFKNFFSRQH

5-HT2A receptor [5] = target: T1, 5-HT2A receptor; test: h5-HT2A affinity, antagonist radioligand [3H]ketanserin; format: binding
5-HT1A = target: T3, 5-HT1A (Homo sapiens, UniProt P08908); test: PDSP screening affinity 5-HT1A; format: binding; conditions: 5-HT1A affinity
T3 sequence (P08908 1-422): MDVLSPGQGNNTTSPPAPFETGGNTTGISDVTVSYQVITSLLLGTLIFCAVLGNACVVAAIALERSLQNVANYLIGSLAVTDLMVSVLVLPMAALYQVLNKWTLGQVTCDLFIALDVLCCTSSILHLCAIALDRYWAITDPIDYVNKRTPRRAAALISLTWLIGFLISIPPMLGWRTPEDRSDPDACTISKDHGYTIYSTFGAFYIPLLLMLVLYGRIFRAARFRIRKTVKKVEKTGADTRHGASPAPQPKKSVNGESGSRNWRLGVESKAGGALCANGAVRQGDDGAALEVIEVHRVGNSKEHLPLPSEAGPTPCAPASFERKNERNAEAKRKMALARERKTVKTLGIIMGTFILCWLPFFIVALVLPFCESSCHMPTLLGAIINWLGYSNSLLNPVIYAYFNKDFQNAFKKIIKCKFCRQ

5-HT7 = 5-HT7 (Homo sapiens, UniProt P34969); test: PDSP screening affinity 5-HT7; format: binding; conditions: 5-HT7 affinity
5-HT7, sequence (P34969 whole entry): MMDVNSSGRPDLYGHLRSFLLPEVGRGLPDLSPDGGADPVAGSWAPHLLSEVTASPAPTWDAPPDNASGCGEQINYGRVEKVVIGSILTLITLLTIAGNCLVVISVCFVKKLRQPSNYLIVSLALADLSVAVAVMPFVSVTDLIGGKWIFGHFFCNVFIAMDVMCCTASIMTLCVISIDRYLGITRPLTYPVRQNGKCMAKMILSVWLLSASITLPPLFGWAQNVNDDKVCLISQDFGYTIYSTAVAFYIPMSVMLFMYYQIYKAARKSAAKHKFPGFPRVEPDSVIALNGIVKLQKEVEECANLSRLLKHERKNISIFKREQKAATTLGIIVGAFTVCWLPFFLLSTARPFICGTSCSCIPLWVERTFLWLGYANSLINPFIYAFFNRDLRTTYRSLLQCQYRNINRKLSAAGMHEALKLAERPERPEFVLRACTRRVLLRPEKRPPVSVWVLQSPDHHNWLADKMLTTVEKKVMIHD

5-HT6 = 5-HT6 (Homo sapiens, UniProt P50406); test: PDSP screening affinity 5-HT6; format: binding; conditions: 5-HT6 affinity
5-HT6, sequence (P50406 whole entry): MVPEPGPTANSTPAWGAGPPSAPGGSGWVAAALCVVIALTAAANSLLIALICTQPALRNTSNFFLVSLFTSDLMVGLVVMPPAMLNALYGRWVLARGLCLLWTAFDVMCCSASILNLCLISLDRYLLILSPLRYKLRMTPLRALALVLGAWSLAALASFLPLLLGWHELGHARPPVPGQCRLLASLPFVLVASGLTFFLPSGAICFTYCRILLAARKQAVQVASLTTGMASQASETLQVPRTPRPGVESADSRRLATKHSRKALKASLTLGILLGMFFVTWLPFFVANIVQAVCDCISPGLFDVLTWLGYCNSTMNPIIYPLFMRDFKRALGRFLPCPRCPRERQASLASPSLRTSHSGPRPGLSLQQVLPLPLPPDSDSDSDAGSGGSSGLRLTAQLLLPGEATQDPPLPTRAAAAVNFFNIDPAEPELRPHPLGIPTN

r5-HT2C = target: T4, r5-HT2C (Rattus norvegicus, UniProt P08909); test: Ca2+ mobilization assay; format: cell-based; conditions: for EC50: r5-HT2C EC50, Ca2+ mobilization; for Emax: read-out: r5-HT2C Emax
T4 sequence (P08909 33-460): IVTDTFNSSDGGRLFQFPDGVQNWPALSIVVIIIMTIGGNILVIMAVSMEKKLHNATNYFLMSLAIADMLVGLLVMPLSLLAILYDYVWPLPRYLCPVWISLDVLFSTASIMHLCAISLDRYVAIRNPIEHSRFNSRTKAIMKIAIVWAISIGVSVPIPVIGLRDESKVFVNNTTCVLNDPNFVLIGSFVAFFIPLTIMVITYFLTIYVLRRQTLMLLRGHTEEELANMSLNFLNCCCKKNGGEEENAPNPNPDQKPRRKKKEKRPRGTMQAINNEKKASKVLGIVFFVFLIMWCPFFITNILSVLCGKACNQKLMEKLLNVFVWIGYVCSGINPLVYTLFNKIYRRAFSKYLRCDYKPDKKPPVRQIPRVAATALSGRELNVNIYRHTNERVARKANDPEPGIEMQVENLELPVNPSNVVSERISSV

h5-HT2C = target: T5, h5-HT2C (Homo sapiens, UniProt P28335); test: Ca2+ mobilization assay; format: cell-based; conditions: for Emax: HEK293, read-out: h5HT2C Emax; for EC50: h5HT2C EC50, Ca2+ mobilization
T5 sequence (P28335 33-458): T2 sequence (P28335 33-458)

5-HT3 = target: T6, 5-HT3 (Homo sapiens, UniProt P46098); test: PDSP screening affinity 5-HT3; format: binding
T6 sequence (P46098 24-478): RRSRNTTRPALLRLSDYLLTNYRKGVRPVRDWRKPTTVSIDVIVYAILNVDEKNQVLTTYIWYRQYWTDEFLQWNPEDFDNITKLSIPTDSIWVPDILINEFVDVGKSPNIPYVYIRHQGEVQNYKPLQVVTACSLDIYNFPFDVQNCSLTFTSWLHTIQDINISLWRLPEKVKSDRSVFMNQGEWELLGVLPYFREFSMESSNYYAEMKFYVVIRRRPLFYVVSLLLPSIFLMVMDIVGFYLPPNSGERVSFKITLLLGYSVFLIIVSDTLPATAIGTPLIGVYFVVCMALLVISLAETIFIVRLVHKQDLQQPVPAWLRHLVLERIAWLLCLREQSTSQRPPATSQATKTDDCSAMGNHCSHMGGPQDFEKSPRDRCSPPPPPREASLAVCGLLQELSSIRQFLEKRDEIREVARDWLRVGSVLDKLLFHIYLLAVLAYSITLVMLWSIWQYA

human 5-HT2C receptor [6] = target: T2, human 5-HT2C receptor; test: h5-HT2C affinity, agonist radioligand [125I]DOI; format: binding
5-HT2A receptor [7] = target: T1, 5-HT2A receptor; conditions: cited from earlier work
h5-HT2A = h5-HT2A (Homo sapiens, UniProt P28223); test: Ca2+ mobilization assay; format: cell-based; conditions: for Emax: HEK293, read-out: h5-HT2A Emax, percentage of the maximum response to 5-HT
h5-HT2A, sequence (P28223 whole entry): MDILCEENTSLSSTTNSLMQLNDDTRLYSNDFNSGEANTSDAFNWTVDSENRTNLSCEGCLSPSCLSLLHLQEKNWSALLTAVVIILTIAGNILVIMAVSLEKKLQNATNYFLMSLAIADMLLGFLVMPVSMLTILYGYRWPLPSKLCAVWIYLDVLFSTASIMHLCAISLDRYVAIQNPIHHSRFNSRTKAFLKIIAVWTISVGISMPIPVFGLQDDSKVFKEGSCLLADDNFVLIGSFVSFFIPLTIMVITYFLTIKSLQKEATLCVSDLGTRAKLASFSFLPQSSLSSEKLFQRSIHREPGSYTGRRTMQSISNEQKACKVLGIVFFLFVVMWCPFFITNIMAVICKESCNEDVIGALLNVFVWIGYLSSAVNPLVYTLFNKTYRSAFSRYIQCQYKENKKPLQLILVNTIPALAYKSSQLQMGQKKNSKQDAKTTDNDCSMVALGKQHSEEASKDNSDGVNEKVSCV

h5-HT2B = h5-HT2B (Homo sapiens, UniProt P41595); test: Ca2+ mobilization assay; format: cell-based; conditions: for Emax: HEK293, read-out: h5-HT2B Emax
h5-HT2B, sequence (P41595 whole entry): as the sequence (P41595 whole entry) above

[8] = test system: 5-HT2 type receptors in rat jugular vein; conditions: cited from earlier work
[9] = test system: isolated guinea pig taenia cecum; conditions: cited from earlier work
rat stomach fundus = conditions: cited from earlier work
[10] = test system: 5-HT2 type receptors in rabbit aorta; conditions: cited from earlier work
[11] = test system: isolated guinea pig uterus; conditions: cited from earlier work
Male C57BL/6J mice [12] = conditions: cited from earlier work
rat tail artery = conditions: cited from earlier work

T1 sequence (P28223 whole entry): as the sequence (P28223 whole entry) above
5-HT1B, sequence (P28222 whole entry): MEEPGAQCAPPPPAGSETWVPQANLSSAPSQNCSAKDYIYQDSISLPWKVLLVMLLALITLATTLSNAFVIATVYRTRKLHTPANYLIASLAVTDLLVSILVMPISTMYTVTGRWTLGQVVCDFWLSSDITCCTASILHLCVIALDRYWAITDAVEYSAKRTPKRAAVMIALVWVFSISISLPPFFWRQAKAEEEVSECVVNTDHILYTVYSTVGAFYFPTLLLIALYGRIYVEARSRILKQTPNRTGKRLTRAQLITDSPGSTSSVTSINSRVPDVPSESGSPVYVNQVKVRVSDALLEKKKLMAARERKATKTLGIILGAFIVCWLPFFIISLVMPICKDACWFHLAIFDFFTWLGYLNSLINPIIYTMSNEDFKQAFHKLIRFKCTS

SMILES	Ki (5-HT1B; 5-HT1B affinity)	Ki (5-ht1e)	EC50 (r5-HT2A)	Ki (5-HT1D)	Ki (5-HT2B; 5-HT2B pKi ± SEM)	Ki (5-HT2A receptor [3])	Ki (human 5-HT2C receptor [4])	Ki (5-ht5a)	Ki (5-HT2A receptor [5])	Ki (5-HT1A)	Ki (5-HT7)	Ki (5-HT6)	EC50 (r5-HT2C)	Emax (r5-HT2C)	Emax (h5-HT2C)	EC50 (h5-HT2C)	Ki (5-HT3)	Ki (human 5-HT2C receptor [6])	EC50 (h5-HT2A)	Emax (h5-HT2A)	other results
COc1cc(CCNCc2ccccc2O)c(OC)cc1C#N [Compound 25CN-NBOH, N-(2-hydroxybenzyl)-2,5-dimethoxy-4-cyanophenethylamine]	–	–	–	–	–	–	–	–	–	–	–	–	–	–	–	–	–	–	–	–	selectivity for 5-HT2A over 5-HT2C (5-HT2A): 100 fold
COc1ccc2[nH]cc(CCNCc3ccc(Br)cc3)c2c1 [Compound 5f, N-(4-Bromobenzyl)-2-(5-methoxy-1H-indol-3-yl)ethan-1-amine]	4370 nM	> 10000 nM	1500 nM	271 nM	148 nM	11.2 nM	251 nM	1030 nM	427 nM	78 nM	358 nM	566 nM	204 nM	108 ± 2%	83 ± 7%	529 nM	> 10000 nM	28.8 nM	430 nM	90.3 ± 1.2%	affinity for the 5-HT2A receptor (5-HT2A receptor [1]): relatively low affinity; Ki (5-HT1B; 5-HT1B pKi ± SEM): 4470 nM; Emax (r5-HT2A; read-out: r5-HT2A Emax, percentage of the maximum response to 5-HT): 77.6 ± 2.4%; activity in the HTR assay (active / inactive) (Male C57BL/6J mice [2]): None of the phenethylamines or tryptamines with 4-substituted N-benzyl groups, 4b, 4e, 5c, or 5f, was active; Ki (5-HT2B; 5-HT2B affinity): 150 nM; selectivity for 5-HT2A over 5-HT2C receptors (5-HT2A receptor [7]; 5-HT2A agonist radioligand, 5-HT2C antagonist radioligand): 1000 fold; Emax (h5-HT2B): 90 ± 2%; EC50 (h5-HT2B; h5-HT2B EC50, Ca2+ mobilization): 290 nM
COc1ccc2[nH]cc(CCNCc3ccccc3)c2c1 [N-benzyl-5-methoxytryptamine]	–	–	–	–	–	–	–	–	–	–	–	–	–	–	–	–	–	–	–	–	agonist activity at 5-HT2 type receptors [8]: weak partial agonist activity; effect on serotonin-induced contraction [9]: antagonist; effect on serotonin-induced contraction (rat stomach fundus): antagonist; affinity relative to the parent primary amine (5-HT2A receptor [7]; receptor not given): essentially no effect on affinity; agonist activity at 5-HT2 type receptors [10]: weak partial agonist activity; effect on serotonin-induced contraction [11]: antagonist
COc1cc(CCNCc2ccccc2OC)c(OC)cc1I [Compound 1, N-(2-Methoxybenzyl)-2-(4-iodo-2,5-dimethoxyphenyl)ethan-1-amine]	5890 nM	> 10000 nM	11 nM	533 nM	1.38 nM	0.158 nM	0.69 nM	2790 nM	0.52 nM	1030 nM	1540 nM	32 nM	95 nM	104 ± 2%	92%	41.7 nM	> 10000 nM	0.5 nM	4.2 nM	86.4 ± 1.4%	max counts (Male C57BL/6J mice [12]; HTR counts): 102.6; activity in the HTR assay (active / inactive) (Male C57BL/6J mice [12]): active; magnitude of peak effect × vehicle (Male C57BL/6J mice [12]; mouse head twitch): 16.0 × vehicle; maximally effective dose (Male C57BL/6J mice [12]; mouse head twitch): 1 mg/kg; ED50 mg/kg (95% CI), mouse head twitch (Male C57BL/6J mice [12]; test duration 30 min, ref 31 (Halberstadt and Geyer)): 0.078 (0.055–0.111) mg/kg; r5-HT2A Emax (r5-HT2A; percentage of the maximum response to 5-HT): 79.4 ± 1.1%; h5-HT2A Ki (5-HT2A receptor [3]; [125I]DOI): subnanomolar affinity; pEC50, rat tail artery (rat tail artery; agonist potency): 10.09; Emax, rat tail artery (rat tail artery): 30%; h5-HT2C Ki (human 5-HT2C receptor [6]; [125I]DOI): subnanomolar affinity; Emax (h5-HT2B): 65 ± 2%; EC50 (h5-HT2B; h5-HT2B pEC50 ± SEM, Ca2+ mobilization, NA = not active, Emax ≤ 15%): 15.5 nM
